Results on 2 compounds are retold here after patent US11771778B2, “Using DREADD for neuronal modulation in treating neuronal diseases” (priority 2016, dated 2023).

A short description of test [1]: Rotarod test, mice without DREADD (normal control and 6OHDA hemi PD). The conditions noted are these: normal control and 6OHDA hemi PD mice, no DREADD; IP CNO 5 mg/kg, blinded. Format: in vivo, C57 black mice. As to the method:
(§1) To monitor the motor impairment and the ability of the DREADD therapy to reverse these impairments the following behavioral tests are conducted. Open field test: to measure motor activity dysfunction. In this test the spontaneous movement of mice in a square arena are recorded and quantified. Rotarod test: Mice were placed on a rotating rod with rotation speed gradually increasing from 4 to 40 RPM using a preset acceleration program. The time mice fell from the rotating rod was measured, with 300 seconds being the maximal time measured on the rod.
(§2) Experiments were performed on 2-4 month old wild type C57 black mice. […]
(§3) Two behavioral tests were used for monitoring the behavior of mice: (1) Open field test: Mice were placed in a 30 cm×30 cm×30 cm open top box for 5 minutes and continuous recorded on a video. The results were analyzed off-line after the experiments ended. Using the EthoVision software, the mean velocity and distance traveled by the mice were monitored during the 5 minutes of open field test. In addition, the number and direction of 180° turns were monitored with the EthoVision software. […] The time mice fell from the rotating rod was measured, with 300 seconds being the maximal time measured on the rod. […]
(In the rotarod test animals must keep their balance on a rotating rod.)

Test [2] has as its target T1, Gq DREADD (hM3D(Gq)) in the GPe nucleus (Homo sapiens, UniProt P20309, A239G/Y149C).
T1 construct: expressed in transfected cells; host or cells: neurons of C57 black mice (GPe or STN), transduced with an AAV8 vector under the hSyn promoter
The experiment in a line: Open field test, 6OHDA PD mice expressing Gq DREADD in GPe. It counts as in vivo, C57 black mice. As to the method:
as §1
(§4) Experiments were performed on 2-4 month old wild type C57 black mice. To induce experimental PD, 1 microliter of a solution containing 6 hydroxy dopamine (6-OHDA) (3 mg/1 ml) was injected into the medial forebrain bundle via a small craniotomy drilled in the skull. The mouse head was fixated in a stereotaxic frame, and the 6OHDA containing solution was injected using a glass pipette held by a micro-manipulator and a micro-injector.
(§5) To express DREADDs (either the inhibitory DREADD Gi or the excitatory DREADD Gq) viral vectors were injected (either AAV8-hSyn-hM3D(Gq)-mCherry or AAV8-hSyn-hM4D(Gi)-mCherry). The viral vectors were injected through a craniotomy with a glass pipette held by a micromanipulator and a micro-injector. During the injections the head was fixated in a stereotaxic frame for accurate injections. Mice were anesthetized throughout the procedure with isoflurane.
The viral vectors […] were injected into several targets in the basal ganglia loop including the STN (either Gi and Gq), the EP and SNr nuclei (Gi), GPe (Gq) and the ventral thalamus (Gq). The injections were usually unilateral at the side of the 6OHDA injections. However, in cases of bilateral 6OHDA injections viral vectors were injected to the target nuclei bilaterally. Usually viral vectors and 6OHDA were injected at the same session. […]
as §3
In this set of experiments, the GPe nucleus, which serves as a major relay nucleus exclusively belonging to the indirect pathway, was targeted. More specifically, the GPe neurons were activated using the excitatory Gq DREADDs, and the effect on behavior on 6-OHDA induced hemi-parkinsonian mice, was monitored.

Test [3] concerns the target T2, Gq DREADD (hM3D(Gq)) in the STN (Homo sapiens, UniProt P20309, A239G/Y149C).
T2 construct: expressed in transfected cells; host or cells: neurons of C57 black mice (GPe or STN), transduced with an AAV8 vector under the hSyn promoter
The experiment in a line: Rotarod test, 6OHDA PD mice expressing Gq DREADD in STN. The note with it: IP CNO 5 mg/kg. Format: in vivo, C57 black mice. As to the method: as §1, §2, §3

The target in test [4] is T2, Gq DREADD (hM3D(Gq)) in the STN. The experiment in a line: Open field test, 6OHDA PD mice expressing Gq DREADD in STN. Format: in vivo, C57 black mice. The note with it: IP CNO 5 mg/kg. As to the method:
as §1, §4, §5
(§6) The viral vectors […] were injected into several targets in the basal ganglia loop including the STN (either Gi and Gq), the EP and SNr nuclei (Gi), GPe (Gq) and the ventral thalamus (Gq). The injections were usually unilateral at the side of the 6OHDA injections. However, in cases of bilateral 6OHDA injections viral vectors were injected to the target nuclei bilaterally. Usually viral vectors and 6OHDA were injected at the same session.
(§7) To investigate the effect of DREADD activation, 500 μl of either IP CNO (5 mg/kg) or normal saline (NS-0.9% NaCl) was administered. Administration of either CNO or saline was performed in a blinded manner. […] Behavioral experiments were performed approximately 20-30 minutes after IP drug administration.
as §3

Another test has as its target T3, hM3Dq receptor (hM3D) (Homo sapiens, UniProt P20309, A239G/Y149C).
T3 construct: host or cells: human pulmonary artery smooth muscle cells
The note with it: human pulmonary artery smooth muscle cells (Armbruster et al., 2007); cited from earlier work.

Test [5] deals with T4, Gi DREADD (hM4D(Gi)) in the EP (GPi) and SNr nuclei (Homo sapiens, UniProt P08173, A203G/Y113C).
T4 construct: expressed in transfected cells; host or cells: neurons of C57 black mice (EP/SNr or STN), transduced with an AAV8 vector under the hSyn promoter
T4 sequence (P08173 1-479 Y113C/A203G): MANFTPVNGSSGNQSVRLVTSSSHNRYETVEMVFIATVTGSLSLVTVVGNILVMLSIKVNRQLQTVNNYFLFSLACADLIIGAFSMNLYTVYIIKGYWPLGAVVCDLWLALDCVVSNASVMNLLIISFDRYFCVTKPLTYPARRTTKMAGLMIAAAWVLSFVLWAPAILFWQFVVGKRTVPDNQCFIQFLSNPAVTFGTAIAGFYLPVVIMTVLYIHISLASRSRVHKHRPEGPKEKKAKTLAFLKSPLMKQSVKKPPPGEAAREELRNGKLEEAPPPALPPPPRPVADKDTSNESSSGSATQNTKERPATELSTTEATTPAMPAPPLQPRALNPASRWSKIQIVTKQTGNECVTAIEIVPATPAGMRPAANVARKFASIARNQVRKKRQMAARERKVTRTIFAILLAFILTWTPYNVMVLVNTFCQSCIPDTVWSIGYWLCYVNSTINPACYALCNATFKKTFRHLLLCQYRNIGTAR
The experiment in a line: Open field test, 6OHDA PD mice expressing Gi DREADD in EP and SNr. Format: in vivo, C57 black mice. The procedure:
as §1, §4, §5, §6, §7, §3

Test [6] has as its target T5, Gi DREADD (hM4D(Gi)) in the STN (Homo sapiens, UniProt P08173, A203G/Y113C).
T5 construct: expressed in transfected cells; host or cells: neurons of C57 black mice (EP/SNr or STN), transduced with an AAV8 vector under the hSyn promoter
T5 sequence (P08173 1-479 Y113C/A203G): T4 sequence (P08173 1-479 Y113C/A203G)
The experiment in a line: Rotarod test, 6OHDA PD mice expressing Gi DREADD in STN. It counts as in vivo, C57 black mice. The conditions noted are these: blinded IP CNO. The procedure:
as §1, §2, §3

Test [7] has as its target T1, Gq DREADD (hM3D(Gq)) in the GPe nucleus. The experiment in a line: Rotarod test, 6OHDA PD mice expressing Gq DREADD in GPe. Format: in vivo, C57 black mice. The procedure:
as §1, §2, §3

In test [8] the target is T5, Gi DREADD (hM4D(Gi)) in the STN. The experiment in a line: Open field test, 6OHDA PD mice expressing Gi DREADD in STN. It counts as in vivo, C57 black mice. The note with it: blinded IP CNO. As to the method: as §1, §2, §3
Test [9] concerns the target T6, wild-type M3 muscarinic receptor (hM3) (Homo sapiens, UniProt P20309).
T6 construct: host or cells: human pulmonary artery smooth muscle cells
The note with it: human pulmonary artery smooth muscle cells (Armbruster et al., 2007); cited from earlier work.

The target in test [10] is T4, Gi DREADD (hM4D(Gi)) in the EP (GPi) and SNr nuclei. The experiment in a line: Rotarod test, 6OHDA PD mice expressing Gi DREADD in EP and SNr. It counts as in vivo, C57 black mice. The procedure: as §1, §2, §3
A short description of test [11]: Open field test, mice without DREADD (normal control and 6OHDA hemi PD). The note with it: normal control and 6OHDA hemi PD mice, no DREADD, IP CNO 5 mg/kg, blinded. It counts as in vivo, C57 black mice. The procedure: as §1, §2, §3
[12] abbreviates: 6OHDA bilateral PD mice, Gq DREADD in both GPe nuclei, p<0.01.
Setting [13] is: 6OHDA hemi PD mice, unilateral Gq DREADD in GPe, IP CNO 5 mg/kg.
Setting [14] is: 6OHDA hemi PD mice, unilateral Gq DREADD in STN.
Where [15] appears, read: bilateral 6OHDA PD mice, bilateral Gq DREADD in STN.
The mark [16] stands for this setting: 6OHDA bilateral PD mice, bilateral Gi DREADD in both EP and SNr nuclei, p<0.01.
Where [17] appears, read: 6OHDA hemi PD mice, unilateral Gi DREADD in EP and SNr, IP CNO 5 mg/kg.

T2 sequence (P20309 whole entry Y149C/A239G): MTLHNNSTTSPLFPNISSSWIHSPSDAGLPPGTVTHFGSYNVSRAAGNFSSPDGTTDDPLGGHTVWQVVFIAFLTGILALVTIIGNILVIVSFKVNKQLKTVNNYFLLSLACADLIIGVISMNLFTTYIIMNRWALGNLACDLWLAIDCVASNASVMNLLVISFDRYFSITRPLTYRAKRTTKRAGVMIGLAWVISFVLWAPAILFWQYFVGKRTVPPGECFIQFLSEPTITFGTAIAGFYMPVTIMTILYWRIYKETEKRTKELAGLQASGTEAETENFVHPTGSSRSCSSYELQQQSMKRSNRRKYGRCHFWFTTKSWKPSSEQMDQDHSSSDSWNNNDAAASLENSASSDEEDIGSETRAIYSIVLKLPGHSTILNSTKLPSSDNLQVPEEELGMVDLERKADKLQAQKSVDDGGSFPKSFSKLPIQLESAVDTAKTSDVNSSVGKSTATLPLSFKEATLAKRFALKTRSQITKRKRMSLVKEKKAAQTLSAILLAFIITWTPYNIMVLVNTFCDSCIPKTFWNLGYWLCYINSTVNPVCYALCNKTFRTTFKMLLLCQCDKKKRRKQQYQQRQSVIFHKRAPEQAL
T1 sequence (P20309 whole entry Y149C/A239G): as above
T6 sequence (P20309 whole entry): as the sequence (P20309 whole entry Y149C/A239G) above, with C149Y, G239A counted along it
T3 sequence (P20309 whole entry Y149C/A239G): as the sequence (P20309 whole entry Y149C/A239G) above

`C[N+]1([O-])CCN(C2=Nc3cc(Cl)ccc3Nc3ccccc32)CC1` [CNO, clozapine-N-oxide]: the “time to falling off the rotating rod, CNO vs NS” value in test [1] is recorded as “no significant differences”. Besides, the “mean velocity in motor activity test, CNO vs NS” value in [2] (setting [12]) and in test [5] (setting [16]) was “beneficial effect” in each case. The “increase in the mean velocity in the open field test compared to NS” value was found to be 77.2±24.7% in [2] (setting [13]), 117.6±26.9% in [4] (setting [14]) and 294.4±70.9% in test [4] (setting [15]). The results for the “reduction in the number of clockwise rotations compared to NS” value in test [2] (setting [13]), in test [4] (setting [14]) and in test [5] (setting [17]) were 37.7±20%, 37.2±17% and 68.9±10.8%, respectively. For the same compound, the figures for the “reduction in the percent of clockwise rotations compared to NS” value in test [2] (setting [13]), in [4] (setting [14]) and in [5] (setting [17]) were 40±7.8%, 47.6±11.1% and 46±8.6%, respectively. For the same compound, the “performances in the rotarod test, CNO vs NS” value in test [3] (setting [14]) is “no significant differences”; in test [6] it was “did not significantly affect”. Also, the “increase in the time before falling off the rotarod compared to NS” value in test [3] (setting [15]) is on record as 81±15.8%. On hM3Dq receptor (hM3D), the “activation of hM3Dq receptor resulting in PIP2 hydrolysis” value is reported as “selectively activated”. Moreover, the “improvement in the mean velocity in the open field test compared to NS” value in [5] (setting [17]) is reported as 36±9%. For the same compound, the “average time on the rotating rod in the rotarod test, CNO vs NS” value in test [7] (setting [12]) and in test [10] (setting [16]) was “beneficial effect” throughout. In addition, the “increase in the time spent on the rotating rod in the rotarod test compared to NS” value in [7] (setting [13]) is reported as 25.6±6.1%; in test [10] (setting [17]), 30.5±7.1%. In addition, in test [8], the “effect on turns, CNO vs NS” value is on record as “small, yet significant beneficial effect”. Moreover, in [8], the “mean velocity in the open field test, CNO vs NS” value is “did not significantly affect”. For the same compound, the “activation of wild-type M3 muscarinic receptor (hM3)” value in test [9] is given as “not by CNO”. Further, the “movement velocity in the open field test, CNO vs NS” value in test [11] is “no significant differences”. In addition, the “ipsilateral turning (number and percent of clockwise rotations), CNO vs NS” value in test [11] (5-minute open field) was “no significant differences”.
Regarding `CC(=O)OCC[N+](C)(C)C` [ACh], the “activation of wild-type M3 muscarinic receptor (hM3)” value in test [9] was “potently activated”.
